Laboratory results from patent publication EP2669288A1, “New monosaccharide derivatives and biological applications thereof” (L[…], priority 2012, dated 2013).
Structures can show the parent of a compound that is named as a salt.

How the values were obtained:
HldE of E. coli = HldE of E. coli (Escherichia coli, UniProt P76658); assay: Inhibition of the enzymatic activity of HldE-K (luminescent assay on kinase activity); format: biochemical; settings: 3nM HldE, 0.2µM β-heptose-7-phosphate, 0.2µM ATP; 30min pre-incubation
Sequence of HldE of E. coli (P76658 whole entry): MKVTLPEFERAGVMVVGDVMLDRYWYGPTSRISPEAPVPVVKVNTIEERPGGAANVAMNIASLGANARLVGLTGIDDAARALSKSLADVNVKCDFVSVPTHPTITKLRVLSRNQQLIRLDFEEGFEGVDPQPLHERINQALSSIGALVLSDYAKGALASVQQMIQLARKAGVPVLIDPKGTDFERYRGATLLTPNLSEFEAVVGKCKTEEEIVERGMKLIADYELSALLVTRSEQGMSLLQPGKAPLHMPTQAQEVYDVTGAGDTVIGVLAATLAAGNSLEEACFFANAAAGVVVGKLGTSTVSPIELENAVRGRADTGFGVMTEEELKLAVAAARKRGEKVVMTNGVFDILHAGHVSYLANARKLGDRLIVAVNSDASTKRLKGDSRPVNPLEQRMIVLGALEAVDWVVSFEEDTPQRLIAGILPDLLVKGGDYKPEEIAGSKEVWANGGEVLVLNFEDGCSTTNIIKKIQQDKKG
Method: Inhibition of the enzymatic activity of HldE-K (luminescent assay on kinase activity):
The assay buffer "AB" contained 50 mM Hepes pH7.5, 1 mM MnCl2, 25 mM KCl, 0.012% Triton-X100 and 1mm dithiothreitol (DTT) and 0.1µM Myelin basic protein (MBP). The following components were added in a white polystyrene Costar plate up to a final volume of 30µL: 10µL inhibitor dissolved in DMSO/water 50/50, and 20µL HldE of E. coli in AB. After 30min of pre-incubation at room temperature, 30µL of Substrates mix in AB were added in each well to a final volume of 60µL. This reaction mixture was then composed of 3nM HldE, 0.2µM β-heptose-7-phosphate (custom synthesis) and 0.2µM ATP (Sigma) in assay buffer. After 30min of incubation at room temperature, 200µL of the revelation mix were added to a final volume of 260µL, including the following constituents at the respective final concentrations: 5000 light units/ml luciferase (Sigma), 30µM D-luciferin (Sigma), 100µM N-acetylcysteamine (Aldrich). Luminescence intensity was immediately measured on Luminoskan (Thermofischer) and converted into inhibition percentages. For IC50 determinations, the inhibitor was tested at 6 to 10 different concentrations, and the related inhibitions were fitted to a classical Langmuir equilibrium model using XLFIT (IDBS).

GmhA of E. coli = GmhA of E. coli (Escherichia coli, UniProt P63224); assay: Inhibition of the enzymatic activity of GmhA (luminescent assay); format: biochemical; settings: 2nM GmhA, 3µM sedoheptulose-7-phosphate, 3µM ATP, 50nM HldE; 30min pre-incubation
Sequence of GmhA of E. coli (P63224 whole entry): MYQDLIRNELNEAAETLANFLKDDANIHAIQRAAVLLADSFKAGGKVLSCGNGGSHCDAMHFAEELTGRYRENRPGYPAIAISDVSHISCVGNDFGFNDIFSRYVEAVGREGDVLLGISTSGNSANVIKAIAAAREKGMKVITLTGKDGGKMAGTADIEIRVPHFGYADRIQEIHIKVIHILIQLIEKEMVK
Method: Inhibition of the enzymatic activity of GmhA (luminescent assay):
The assay buffer "AB" contained 50 mM Hepes pH7.5, 1 mM MnCl2, 25 mM KCl, 0.012% Triton-X100 and 1mm dithiothreitol (DTT) and 0.1µM Myelin basic protein (MBP). The following components were added in a white polystyrene Costar plate up to a final volume of 30µL: 10µL inhibitor dissolved in DMSO/water 50/50, and 20µL GmhA of E. coli in AB. After 30min of pre-incubation at room temperature, 30µL of Substrates mix in AB were added in each well to a final volume of 60µL. This reaction mixture was then composed of 2nM GmhA, 3µM sedoheptulose-7-phosphate (Sigma), 3µM ATP (Sigma) and 50nM HldE of E. coli in assay buffer. After 30min of incubation at room temperature, 100µL of the revelation mix were added to a final volume of 160µL, including the following constituents at the respective final concentrations: 10000 light units/ml luciferase (Sigma), 20µM D-luciferin (Sigma), 100µM N-acetylcysteamine (Aldrich). Luminescence intensity was immediately measured on Luminoskan (Thermofischer) and converted into inhibition percentages. For IC50 determinations, the inhibitor was tested at 6 to 10 different concentrations, and the related inhibitions were fitted to a classical langmuir equilibrium model using XLFIT (IDBS).

E. coli C7 (018:K1:H7) = assay: Killing of the bacteria in culture with compound; format: cell-based; settings: at 1 mM
Method: Bacterial culture: The effect of heptosylation inhibitors on E. coli LPS was assessed as described below. The compounds to be tested were prepared in deionised water/DMSO (50/50) solutions and added (25µL) in sterile culture microtubes. The strain used in this study was E. coli C7 (018:K1:H7). The bacteria were isolated on tryptic soy agar (TSA) over-night. Isolated colonies were cultured in 10ml of Luria-Bertani medium (LB) at 37°C up to an optical density of typically 0.15. These exponentially growing bacteria were finally diluted to 5e5 cfu/ml and added in each well (225µL) for incubation with the compounds at 37°C for approximately 5 hours, up to an optical density of ≈0.2-0.4. Some test compounds e.g. phospho-sugars required Glucose-6-Phosphate (G6P, from Sigma) to be added in the culture medium in order to activate their active transport into the bacterial cytosol via the phospho-sugar transporter UhpT. This was achieved by adding in the culture tube 2.5µL of a 10mM water solution of G6P (100µM final concentration).

[1] = tested on: E. coli C7 LPS heptosylation; assay: Inhibition of E. coli C7 LPS biosynthesis (LPS gel electrophoresis, silver staining); format: cell-based, E. coli C7 (018:K1:H7)
Method: Inhibition of E. coli C7 (018:K1:H7) LPS biosynthesis:
The inner core contains several heptose residues. An inhibitor of the LPS heptosylation pathway should therefore reduce dramatically the size of LPS from full-length to the so-called 'Re-LPS' limited to lipid A branched with 2 Kdo residues.
Bacterial culture: The effect of heptosylation inhibitors on E. coli LPS was assessed as described below. The compounds to be tested were prepared in deionised water/DMSO (50/50) solutions and added (25µL) in sterile culture microtubes. The strain used in this study was E. coli C7 (018:K1:H7). The bacteria were isolated on tryptic soy agar (TSA) over-night. […]
LPS extraction: Bacterial cultures were normalized via OD determination, pelleted and washed with 1ml Phosphate-Buffer-Saline (PBS). […] The resulting supernatant, containing LPS was finally analysed by SDS-PAGE electrophoresis. […]
Silver staining: Gels were incubated overnight in 5% acetic acid/40% ethanol/deionised water, treated by 1% periodic acid/5% acetic acid for 15min, washed 4 times for 10min in deionised water and finally incubated for 18min in the dark in a silver nitrate solution composed of 56ml NaOH 0.1N, 4ml ammoniac 33%, 45ml AgN03 5% (Tsai and Frasch) and 195 ml deionised water. […] Gels were finally washed in deionised water, numerized with a Samsung PL51 camera and analysed by ImageJ software. […]

Molecule	IC50 (HldE of E. coli) [µM]	IC50 (GmhA of E. coli) [µM]	killing of the bacteria (E. coli C7 (018:K1:H7))	reducing LPS heptosylation ([1]; in absence of G6P)	inhibition of E. coli C7 LPS heptosylation ([1]; in the presence of 100 µM G6P, at concentrations < 1 mM)
7-O-phosphate-D-glycero-D-gluco-2-deoxy-2-amino-1-deoxy-heptopyranoside hydrochloride [Example 1]	< 100	< 100	–	–	–
N[C@H]1C(O)O[C@H]([C@H](O)COP(=O)(O)O)[C@@H](O)[C@@H]1O (stereo partly drawn) [Example 2, 7-O-phosphate-D-glycero-D-gluco-2-deoxy-2-amino-heptopyranoside hydrochloride]	< 100	< 100	did not kill the bacteria	inactive	at least 50%
